Data on 4 compounds can be found in patent US8110592B2, “Agrochemical formulations that can be dispersed in water containing polyalkoxytriglycerides as penetration enhances” (priority 2006, dated 2012).

The test system of this series is apple leaf cuticles. The experiment in a line: Penetration of active compounds through enzymatically isolated apple leaf cuticles. It counts as in vitro ADME, apple trees of the Golden Delicious variety. The text has this:
Penetration* of spirotetramate with penetrants according to the invention compared to the control without penetrant and the rapid-action uptake enhancer Genapol® X150. All penetrants employed at 0.5 g/l.
This test measured the penetration of active compounds through enzymatically isolated cuticles of apple leaves.
The leaves used were cut in the fully developed state from apple trees of the Golden Delicious variety. The cuticles were isolated as follows: • first of all, leaf discs labelled on the underside with dye and formed by punching were filled by means of vacuum infiltration with a pectinase solution (0.2% to 2% strength) buffered to a pH of between 3 and 4, • then sodium azide was added and • the leaf discs thus treated were left to stand until the original leaf structure broke down and the non-cellular cuticles underwent detachment.
Thereafter only those cuticles from the top leaf sides that were free from stomata and hairs were used further. They were washed a number of times in alternation with water and with a buffer solution, pH 7. The clean cuticles obtained were, finally, applied to Teflon plaques and smoothed and dried with a gentle jet of air.
In the next step the cuticular membranes obtained in this way were placed in stainless steel diffusion cells (transport chambers) for the purpose of membrane transport investigations. For these investigations the cuticles were placed centrally using tweezers on the edges of the diffusion cells, which were coated with silicone grease, and sealed with a ring, which was likewise greased. The arrangement was chosen so that the morphological outer side of the cuticles was directed outwards, in other words to the air, while the original inner side was facing the interior of the diffusion cell.
The diffusion cells were filled with a 1% phospholipid suspension. Penetration was determined by applying in each case 10 μl of the spray liquor of the composition below, containing radiolabeled active compound in the stated concentrations, to the outer face of the cuticles. The spray liquor is prepared using local tap water of average hardness.
After the spray liquors had been applied, the water was evaporated and then the chambers were inverted and placed in thermostatted troughs, in which the temperature and air humidity over the cuticles was adjustable by means of a gentle air stream onto the cuticles with the spray coating (20° C., 60% rh). At regular intervals, an autosampler took aliquots which were subjected to measurement in a scintillation counter.
Facilitation of the penetration of various active compounds* by penetrants according to the invention exemplified by Crovol® CR70G in comparison to the control.

Where [1] appears, read: with 0.5 g/l Crovol CR70G, after 24 hours.
Where [2] appears, read: with 0.5 g/l Crovol CR70G, after 72 hours.
[3] abbreviates: without Crovol CR70G, after 24 hours.
The mark [4] stands for this setting: without Crovol CR70G, after 72 hours.
Setting [5] is: spirotetramate 0.2 g/l, control without additive.

`O=[N+]([O-])NC1=NCCN1Cc1ccc(Cl)nc1` [Imidacloprid, imidacloprid]: the “% penetration (after hours)” value (apple (Malus domestica), 24 h) came to 0.7% and the “% penetration (after hours)” value (apple (Malus domestica), 48 h) is on record as 2.2%.

With `CC(C)(C)C(O)(CCc1ccc(Cl)cc1)Cn1cncn1` (centres unmarked) [Tebuconazole, tebuconazole], the “% penetration (after hours)” value reads like this: under setting [1], 6.0%; under setting [2], 31.5%; under setting [3], below 2%; under setting [4], below 2%.

For `CS(=O)(=O)c1ccc(C(=O)C2C(=O)CCCC2=O)c(Cl)c1COCC(F)(F)F` [Tembotrione, tembotrione], the “% penetration (after hours)” value by setting is: (apple (Malus domestica), 6 h) below 1%; (apple (Malus domestica), 18 h) below 1%.

On to `CCOC(=O)OC1=C(c2cc(C)ccc2C)C(=O)N[C@]12CC[C@@H](OC)CC2` [spirotetramate], for which, under setting [5], the “% penetration after 24 h” value was 0.1%. The “% penetration after 3 days” value under setting [5] came to 0.3%. Also, the “% penetration (after hours)” value is, setting by setting: under setting [1], 5.8%; under setting [2], 40.5%; under setting [3], 0.1%; under setting [4], 0.3%.
